In US6436929B1 (Wyeth, priority 1999, dated 2002):

First: CC1(C)OC(=S)Nc2ccc(-c3ccc(F)cc3)cc21 [Example 46, 6(4-Fluorophenyl)-4,4-dimethyl-1,4-dihydro-2H-3,1-benzoxazine-2-thione]
Second: CC1(C)OC(=S)Nc2ccc(-c3ccc(F)c(Cl)c3)cc21 [Example 61, 6-(3-Chloro-4-fluorophenyl)-4,4-dimethyl-1,4-dihydro-2H-3,1-benzoxazine-2-thione]
The melting point of the first is higher: 221 to 223 °C for the first, 196 to 197 °C for the second.

First: CCC1(CC)OC(=S)Nc2ccc(-c3cccc(Cl)c3)cc21 [Example 51, 6-(3-Chlorophenyl)-4,4-diethyl-1,4-dihydro-2H-3,1-benzoxazine-2-thione]
Second: C=CCC1(C)OC(=S)Nc2ccc(-c3cccc(Cl)c3)cc21 (stereo not drawn) [Example 37, 4-Allyl-6-(3-chlorophenyl)-4-methyl-1,4-dihydro-2H-3,1-benzoxazine2-thione]
The melting point of the first is lower: 148 to 150 °C for the first, 150 to 151 °C for the second.

Compared with CC1(C)OC(=S)Nc2ccc(-c3ccc(C#N)[nH]3)cc21 [Example 18, 5(4,4-Dimethyl-2-thioxo-1,4-dihydro-2H-3,1-benzoxazin-6-yl)-1H-pyrrole-2-carbonitrile], CC1(C)OC(=S)Nc2ccc(-c3ccc(C#N)s3)cc21 [Example 56, 5-(4,4-Dimethyl-2-thioxo-1,4-dihydro-2H-3,1-benzoxazin-6-yl)thiophene-2-carbonitrile] is lower in melting point: 261 to 262 °C for the first, 242 to 244 °C for the second.

First: CC1(C)OC(=S)Nc2ccc(-c3cccc([N+](=O)[O-])c3)cc21 [Example 50, 4,4-Dimethyl-6-(3-nitrophenyl)-1,4-dihydro-2H-3,1-benzoxazine-2-thione]
Second: CC1(C)OC(=S)Nc2ccc(-c3cccc(Br)c3)cc21 [Example 65, 6-(3-Bromophenyl)-4,4-dimethyl-1,4-dihydro-2H-3,1-benzoxazine-2-thione]
The melting point of the first is higher: 224 to 226 °C for the first, 191 to 193 °C for the second.

Compared with CC1(C)OC(=S)Nc2ccc(-c3cc(Cl)cc(C#N)c3)cc21 [Example 38, 3-Chloro-5-(4,4-dimethyl-2-thioxo-1,4-dihydro-2H-3,1-benzoxazin-6-yl)benzonitrile], Cc1cc(C#N)cc(-c2ccc3c(c2)C(C)(C)OC(=S)N3)c1 [Example 31, 3-(4,4-Dimethyl-2-thioxo-1,4-dihydro-2H-3,1-benzoxazin-6-yl)-5-methylbenzonitrile] is lower in melting point: 249 to 251 °C for the first, 230 to 231 °C for the second.

First: CC(C)(C)OC(=O)n1c(C#N)ccc1-c1ccc2c(c1)C(C)(C)OC(=S)N2 [Example 17, tert-Butyl 2-cyano-5-(4,4-dimethyl-2-thioxo-1,4-dihydro-2H-3,1-benzoxazin-6-yl)-1H-pyrrole-1-carboxylate]
Second: CCn1c(C#N)ccc1-c1ccc2c(c1)C(C)(C)OC(=S)N2 [Example 23, 5-(4,4-dimethyl-2-thioxo-1,4-dihydro-2H-3,1-benzoxazin-6-yl)-1-ethyl-1H-pyrrole-2-carbonitrile]
The melting point of the first is lower: 165 to 167 °C for the first, 212 to 213 °C for the second.

CCCc1cc(C#N)sc1-c1ccc2c(c1)C(C)(C)OC(=S)N2 [Example 62, 5-(4,4-Dimethyl-2-thioxo-1,4-dihydro-2H-3,1-benzoxazin6-yl)-4-propylthiophene2-carbonitrile] and CCCCc1cc(C#N)sc1-c1ccc2c(c1)C(C)(C)OC(=S)N2 [Example 64, 4-Butyl-5-(4,4-dimethyl-2-thioxo-1,4-dihydro-2H-3,1-benzoxazin-6-yl)thiophene-2-carbonitrile] fall in the same range of melting point: 174 to 175 °C for the first, 174 to 175 °C for the second.

First: COc1cc(C#N)cc(-c2ccc3c(c2)C(C)(C)OC(=S)N3)c1 [Example 41, 3-(4,4-Dimethyl-2-thioxo-1,4-dihydro2H-3,1-benzoxazin-6-yl)-5-methoxybenzonitrile]
Second: COc1cc(F)cc(-c2ccc3c(c2)C(C)(C)OC(=S)N3)c1 [Example 40, 6-(3-Fluoro-5methoxyphenyl)-4,4-dimethyl-1,4-dihydro-2H-3,1-benzoxazine-2-thione]
The melting point of the first is higher: 201 to 202 °C for the first, 170 to 171 °C for the second.

Compared with N#Cc1ccc(-c2ccc3c(c2)C2(CCCCC2)OC(=S)N3)s1 [Example 60, 5-(1,2-Dihydro-2-thioxospiro[4H-3,1-benzoxazine-4,1-cyclohexan]-6yl)-2-thiophenecarbonitrile], N#Cc1cc(F)cc(-c2ccc3c(c2)C2(CCCCC2)OC(=S)N3)c1 [Example 30, 3-(1,2-Dihydro-2-thioxospiro[4H-3,1-benzoxazine-4,1-cyclohexan]-6-yl)-5-fluorobenzonitrile] is higher in melting point: 232 to 233 °C for the first, 235 to 237 °C for the second.

First: CC1(C)OC(=S)Nc2ccc(-c3cccc(F)c3F)cc21 [Example 48, 6-(2,3-Difluorophenyl)-4,4-dimethyl-1,4-dihydro-2H-3,1-benzoxazine-2-thione]
Second: CC1(C)OC(=S)Nc2ccc(-c3ccccc3F)cc21 [Example 44, 6-(2-Fluorophenyl)-4,4-dimethyl-1,4-dihydro-2H-3,1-benzoxazine-2-thione]
The melting point of the first is higher: 197 to 198 °C for the first, 171 to 173 °C for the second.

First: CC1(c2ccccc2)OC(=S)Nc2ccc(-c3cccc(Cl)c3)cc21 (stereo not drawn) [Example 36, 6-(3-Chlorophenyl)-4-methyl-4-phenyl-1,4-dihydro-2H-3,1-benzoxazine-2-thione]
Second: COc1cccc(-c2ccc3c(c2)C(C)(C)OC(=S)N3)c1 [Example 52, 6-(3-Methoxyphenyl)-4,4-dimethyl-1,4-dihydro-2H-3,1-benzoxazine-2-thione]
The melting point of the first is higher: 202 to 203 °C for the first, 142 to 143 °C for the second.

First: CC1(C)OC(=S)Nc2ccc(-c3cc(Br)cc(OC(F)(F)F)c3)cc21 [Example 29, 6-(3-Bromo-5trifluoromethoxyphenyl)-4,4-dimethyl-1,4-dihydro-2H-3,1-benzoxazine-2-thione]
Second: Cc1cc(Br)cc(-c2ccc3c(c2)C(C)(C)OC(=S)N3)c1 [Example 28, 6-(3-Bromo-5-methylphenyl)-4,4-dimethyl-1,4-dihydro-2H-3,1-benzoxazine-2-thione]
The melting point of the first is higher: 192 to 193 °C for the first, 183 to 184 °C for the second.

First: CC1(C)OC(=S)Nc2ccc(-c3sccc3C#N)cc21 [Example 66, 2-(4,4-Dimethyl-2-thioxo-1,4-dihydro-2H-3,1-benzoxazin-6-yl)thiophene-3-carbonitrile]
Second: CC1(C)OC(=S)Nc2ccc(-c3cccc(CC#N)n3)cc21 [Example 19, [6-(4,4-dimethyl-2-thioxo-1,4-dihydro-2H-3,1-benzoxazin-6-yl)pyridin-2-yl]acetonitrile]
The melting point of the first is lower: 194 to 195 °C for the first, 215 to 217 °C for the second.

First: CC1(C)OC(=S)Nc2c(Br)cc(-c3cc(F)cc(C#N)c3)cc21 [Example 49, 3-(8-Bromo-4,4-dimethyl-2-thioxo-1,4-dihydro-2H-3,1-benzoxazin-6-yl)-5-fluorobenzonitrile]
Second: CC1(C)OC(=S)Nc2ccc(-c3cc(F)cc(F)c3)cc21 [Example 39, 6-(3,5-Difluorophenyl)-4,4-dimethyl-1,4-dihydro-2H-3,1-benzoxazine-2-thione]
The melting point of the first is lower: 216 to 217 °C for the first, 224 to 225 °C for the second.

Compared with CC1(C)OC(=S)Nc2ccc(Br)cc21 [Example 10, 6-Bromo-4,4-dimethyl-1,4-dihydro-benzo[d][1,3]oxazin-2-thione], CC1(C)OC(=S)Nc2ccc(-c3cncc(Br)c3)cc21 [Example 26, 6-(5Bromopyridin-3-yl)-4,4-dimethyl-1,4-dihydro-2H-3,1-benzoxazine-2-thione] is higher in melting point: 221 to 222.5 °C for the first, 252 to 253 °C for the second.
